Source: patent publication US10844077B2, “Thiazolyl-containing compounds for treating proliferative diseases” (Dana-Farber Cancer Institute, Inc., priority 2014, dated 2020)
Several values for one entry are separate records, joined by “and”; a condition that tells them apart may be missing. Equal entries are not always repeated.

Key:
Test in all cases: KINATIV assay
Assay type in all cases: cell-based
Conditions in all cases: 1 μM, 90 minutes, BCWM.1 cells
CDK5 = CDK5 (Homo sapiens (Human), UniProt Q00535)
Procedure, shortened: (§1)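 Cell lysate + ATP-biotin probe (direct labeling); bound kinases ID'd/quantitated by ACTIVX. Cpds in duplicate vs duplicate or quadruplicate controls.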

CHK1 = CHK1 (Homo sapiens (Human), UniProt O14757)
Procedure, shortened: as §1

CHK2 = CHK2 (Homo sapiens (Human), UniProt O96017)
Procedure, shortened: as §1

IRAK4 = IRAK4 (Homo sapiens (Human), UniProt Q9NWZ3)
Procedure, shortened: as §1

LOK = LOK (Homo sapiens (Human), UniProt O94804)
Procedure, shortened: as §1

MAP2K3 = MAP2K3 (Homo sapiens (Human), UniProt P46734)
Procedure, shortened: as §1

MAP2K4 = MAP2K4 (Homo sapiens (Human), UniProt P45985)
Procedure, shortened: as §1

NDR2 = NDR2 (Homo sapiens (Human), UniProt Q9Y2H1)
Procedure, shortened: as §1

PIK3C3 = PIK3C3 (Homo sapiens (Human), UniProt Q8NEB9)
Procedure, shortened: as §1

PLK1 = PLK1 (Homo sapiens (Human), UniProt P53350)
Procedure, shortened: as §1

RSK1 domain 1 = RSK1 domain 1 (Homo sapiens (Human), UniProt Q15418)
Procedure, shortened: as §1

MST3 = MST3 (Homo sapiens (Human), UniProt Q9Y6E0)
Procedure, shortened: as §1

PIK3C3, sequence (Q8NEB9 whole entry): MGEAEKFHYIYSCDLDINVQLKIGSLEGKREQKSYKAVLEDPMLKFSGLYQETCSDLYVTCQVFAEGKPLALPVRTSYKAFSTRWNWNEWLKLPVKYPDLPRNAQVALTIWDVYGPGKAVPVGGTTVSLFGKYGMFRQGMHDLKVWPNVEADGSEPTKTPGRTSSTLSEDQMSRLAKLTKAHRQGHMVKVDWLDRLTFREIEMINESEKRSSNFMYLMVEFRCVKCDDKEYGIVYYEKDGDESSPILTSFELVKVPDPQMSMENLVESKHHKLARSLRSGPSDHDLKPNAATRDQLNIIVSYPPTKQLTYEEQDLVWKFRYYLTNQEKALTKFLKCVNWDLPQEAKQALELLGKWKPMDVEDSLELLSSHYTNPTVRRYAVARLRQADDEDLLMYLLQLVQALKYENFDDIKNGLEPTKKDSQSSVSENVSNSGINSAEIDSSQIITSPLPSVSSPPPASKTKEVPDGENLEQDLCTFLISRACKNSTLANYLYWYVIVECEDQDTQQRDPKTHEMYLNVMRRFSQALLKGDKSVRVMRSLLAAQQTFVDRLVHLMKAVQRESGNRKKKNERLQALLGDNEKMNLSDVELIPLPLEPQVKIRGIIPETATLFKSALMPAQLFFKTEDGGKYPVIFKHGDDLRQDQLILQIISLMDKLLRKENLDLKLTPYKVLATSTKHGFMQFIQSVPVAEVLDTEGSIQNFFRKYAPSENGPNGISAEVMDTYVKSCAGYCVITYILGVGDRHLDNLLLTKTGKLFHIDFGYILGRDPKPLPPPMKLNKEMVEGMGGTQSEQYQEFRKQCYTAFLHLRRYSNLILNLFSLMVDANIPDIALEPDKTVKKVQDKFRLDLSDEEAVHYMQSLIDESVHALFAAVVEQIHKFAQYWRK
RSK1 domain 1, sequence (Q15418 whole entry, the tested form may be a part): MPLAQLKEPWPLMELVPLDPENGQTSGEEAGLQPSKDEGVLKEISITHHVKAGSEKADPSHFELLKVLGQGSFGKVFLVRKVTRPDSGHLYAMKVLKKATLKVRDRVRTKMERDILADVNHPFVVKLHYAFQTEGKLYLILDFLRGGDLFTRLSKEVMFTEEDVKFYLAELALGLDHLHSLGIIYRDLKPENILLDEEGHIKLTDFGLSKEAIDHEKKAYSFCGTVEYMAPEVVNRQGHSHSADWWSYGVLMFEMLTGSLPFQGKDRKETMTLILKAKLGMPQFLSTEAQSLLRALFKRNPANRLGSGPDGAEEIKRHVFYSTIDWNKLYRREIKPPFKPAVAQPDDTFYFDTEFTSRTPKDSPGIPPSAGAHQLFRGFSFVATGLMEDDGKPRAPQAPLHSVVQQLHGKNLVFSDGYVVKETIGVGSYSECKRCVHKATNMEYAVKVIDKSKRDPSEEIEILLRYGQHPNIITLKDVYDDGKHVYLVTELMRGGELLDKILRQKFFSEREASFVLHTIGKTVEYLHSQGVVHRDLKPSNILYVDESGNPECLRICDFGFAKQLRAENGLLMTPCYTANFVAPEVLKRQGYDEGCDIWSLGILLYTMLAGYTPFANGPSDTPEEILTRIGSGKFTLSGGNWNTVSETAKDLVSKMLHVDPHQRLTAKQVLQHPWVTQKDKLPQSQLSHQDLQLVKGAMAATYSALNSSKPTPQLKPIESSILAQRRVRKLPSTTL
CDK5, sequence (Q00535 whole entry): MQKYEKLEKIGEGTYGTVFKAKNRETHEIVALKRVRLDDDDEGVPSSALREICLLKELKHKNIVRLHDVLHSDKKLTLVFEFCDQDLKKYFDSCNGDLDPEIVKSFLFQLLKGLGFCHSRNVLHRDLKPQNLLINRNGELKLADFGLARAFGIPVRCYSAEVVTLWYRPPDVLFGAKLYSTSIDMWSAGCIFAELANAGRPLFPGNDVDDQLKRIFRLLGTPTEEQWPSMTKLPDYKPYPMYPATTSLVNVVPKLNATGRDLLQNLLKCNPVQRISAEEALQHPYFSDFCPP
LOK, sequence (O94804 whole entry): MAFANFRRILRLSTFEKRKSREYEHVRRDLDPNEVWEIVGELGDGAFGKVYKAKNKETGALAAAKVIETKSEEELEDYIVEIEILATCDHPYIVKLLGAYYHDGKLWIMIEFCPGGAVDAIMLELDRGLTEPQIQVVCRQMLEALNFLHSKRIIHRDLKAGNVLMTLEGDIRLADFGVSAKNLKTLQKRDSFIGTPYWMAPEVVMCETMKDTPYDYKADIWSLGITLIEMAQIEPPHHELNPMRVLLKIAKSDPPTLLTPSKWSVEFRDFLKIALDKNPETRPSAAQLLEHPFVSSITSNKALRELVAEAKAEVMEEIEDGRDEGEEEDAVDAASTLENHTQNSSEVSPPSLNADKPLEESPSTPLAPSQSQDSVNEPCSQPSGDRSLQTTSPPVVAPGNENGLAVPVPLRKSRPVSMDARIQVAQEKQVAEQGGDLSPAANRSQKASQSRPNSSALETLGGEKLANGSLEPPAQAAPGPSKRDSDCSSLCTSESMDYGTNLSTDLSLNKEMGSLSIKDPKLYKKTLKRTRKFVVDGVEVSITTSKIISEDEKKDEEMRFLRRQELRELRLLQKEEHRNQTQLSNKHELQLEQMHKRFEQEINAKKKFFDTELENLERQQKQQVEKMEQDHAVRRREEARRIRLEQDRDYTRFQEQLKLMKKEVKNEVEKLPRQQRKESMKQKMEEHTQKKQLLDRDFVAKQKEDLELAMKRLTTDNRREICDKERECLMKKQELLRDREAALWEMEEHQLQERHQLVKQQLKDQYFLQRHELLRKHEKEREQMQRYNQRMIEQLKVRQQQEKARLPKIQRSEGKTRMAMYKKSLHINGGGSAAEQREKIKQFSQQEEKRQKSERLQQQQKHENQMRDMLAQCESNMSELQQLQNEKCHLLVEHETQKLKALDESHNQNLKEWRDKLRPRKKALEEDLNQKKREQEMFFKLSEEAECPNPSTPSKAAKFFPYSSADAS
IRAK4, sequence (Q9NWZ3 whole entry): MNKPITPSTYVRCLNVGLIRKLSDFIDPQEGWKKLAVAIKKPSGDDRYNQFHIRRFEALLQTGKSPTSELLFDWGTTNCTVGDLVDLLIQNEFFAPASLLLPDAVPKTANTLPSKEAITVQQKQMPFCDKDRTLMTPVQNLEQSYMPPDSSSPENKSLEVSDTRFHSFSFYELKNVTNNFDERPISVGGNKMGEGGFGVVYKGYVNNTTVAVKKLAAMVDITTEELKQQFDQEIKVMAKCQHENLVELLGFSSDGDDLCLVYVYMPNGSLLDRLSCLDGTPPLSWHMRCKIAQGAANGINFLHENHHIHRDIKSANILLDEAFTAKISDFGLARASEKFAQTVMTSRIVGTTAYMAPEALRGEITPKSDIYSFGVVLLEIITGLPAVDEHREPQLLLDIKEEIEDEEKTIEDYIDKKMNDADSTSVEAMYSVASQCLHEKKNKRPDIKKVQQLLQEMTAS
MAP2K3, sequence (P46734 whole entry): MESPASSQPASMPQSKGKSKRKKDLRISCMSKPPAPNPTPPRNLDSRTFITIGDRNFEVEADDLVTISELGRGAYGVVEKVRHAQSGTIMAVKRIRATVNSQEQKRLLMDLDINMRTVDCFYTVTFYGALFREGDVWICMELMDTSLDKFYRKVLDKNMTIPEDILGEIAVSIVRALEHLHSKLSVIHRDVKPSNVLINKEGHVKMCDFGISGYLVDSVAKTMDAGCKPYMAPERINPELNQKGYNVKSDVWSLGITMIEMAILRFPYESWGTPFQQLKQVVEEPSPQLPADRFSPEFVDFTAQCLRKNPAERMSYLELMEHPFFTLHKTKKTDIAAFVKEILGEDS
PLK1, sequence (P53350 whole entry): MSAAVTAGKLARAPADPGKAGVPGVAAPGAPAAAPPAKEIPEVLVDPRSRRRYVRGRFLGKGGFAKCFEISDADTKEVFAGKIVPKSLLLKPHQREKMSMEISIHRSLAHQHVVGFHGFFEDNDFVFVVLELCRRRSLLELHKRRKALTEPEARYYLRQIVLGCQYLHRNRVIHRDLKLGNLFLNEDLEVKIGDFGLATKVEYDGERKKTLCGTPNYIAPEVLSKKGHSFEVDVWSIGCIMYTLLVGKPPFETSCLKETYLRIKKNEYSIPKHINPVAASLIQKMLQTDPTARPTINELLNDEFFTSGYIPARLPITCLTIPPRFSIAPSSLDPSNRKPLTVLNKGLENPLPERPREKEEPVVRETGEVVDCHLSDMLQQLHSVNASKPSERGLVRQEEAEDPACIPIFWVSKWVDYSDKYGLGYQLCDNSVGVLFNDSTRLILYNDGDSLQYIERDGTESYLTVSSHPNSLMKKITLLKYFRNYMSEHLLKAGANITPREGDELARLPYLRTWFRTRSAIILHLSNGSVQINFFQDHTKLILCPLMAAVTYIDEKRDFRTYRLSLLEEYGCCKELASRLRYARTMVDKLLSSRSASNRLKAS
CHK2, sequence (O96017 whole entry): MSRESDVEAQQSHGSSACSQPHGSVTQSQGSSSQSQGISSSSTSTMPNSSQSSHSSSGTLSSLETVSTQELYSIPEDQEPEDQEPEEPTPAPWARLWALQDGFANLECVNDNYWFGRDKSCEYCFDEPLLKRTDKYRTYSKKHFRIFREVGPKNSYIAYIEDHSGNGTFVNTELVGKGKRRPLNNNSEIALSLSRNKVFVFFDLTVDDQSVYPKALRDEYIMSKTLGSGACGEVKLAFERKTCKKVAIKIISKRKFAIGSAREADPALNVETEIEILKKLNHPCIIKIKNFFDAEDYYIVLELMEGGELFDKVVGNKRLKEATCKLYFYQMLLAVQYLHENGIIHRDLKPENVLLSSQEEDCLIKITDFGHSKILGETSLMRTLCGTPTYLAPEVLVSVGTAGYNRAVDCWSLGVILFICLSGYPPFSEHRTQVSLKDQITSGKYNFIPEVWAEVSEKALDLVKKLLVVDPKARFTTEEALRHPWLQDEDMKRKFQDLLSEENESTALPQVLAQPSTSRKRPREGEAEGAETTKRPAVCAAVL

| SMILES | % change of MS signal compared to control sample (CDK5) | % change of MS signal compared to control sample (CHK1) [%] | % change of MS signal compared to control sample (CHK2) | % change of MS signal compared to control sample (IRAK4) | % change of MS signal compared to control sample (LOK) | % change of MS signal compared to control sample (MAP2K3) | % change of MS signal compared to control sample (MAP2K4) [%] | % change of MS signal compared to control sample (NDR2) [%] | % change of MS signal compared to control sample (PIK3C3) | % change of MS signal compared to control sample (PLK1) | % change of MS signal compared to control sample (RSK1 domain 1) | % change of MS signal compared to control sample (MST3) |
| --- | --- | --- | --- | --- | --- | --- | --- | --- | --- | --- | --- | --- |
| C=CC(=O)N1CC[C@@H](Nc2nccc(Nc3ncc(C(=O)Nc4c(C)cccc4C)s3)n2)C1 [Example I-4] | −7.1% and −7.2% | 24.1 | −7.9% and 1.0% | 17.8% and 25.9% | −27.4% | −12.3% and −18.8% | −48.8 | −42.0 | −14.1% and −5.5% | 17.4% | −62.2% and −53.4% | – |
| C=CC(=O)N1CCC(Cn2ccc(Nc3ncc(C(=O)Nc4c(C)cccc4Cl)s3)n2)C1 (stereo not shown) [II-1] | −11.2% and −8.0% | – | – | 15.9% and 18.5% | −5.5% and −15.4% | −19.5% and −15.9% | – | – | −4.7% and −11.6% | 0.5% and −0.2% | −76.3% | 5.9% and 2.0% |
